Reference: patent US10975078B2, “Fused indazole pyridone compounds as antivirals” (priority 2017, dated 2021)

These molecules were tested on HBsAg secretion, HepG2-Clone42 cells (Tet-inducible HBV-expressing, HBV ayw strain) (assay: HBsAg assay (HBsAg ELISA, secreted HBV sAg from HepG2-Clone42 cells)). Conditions: Hepatitis B virus, read-out: HBsAg (nM), EC50 = concentration at which HBsAg secretion was reduced 50% compared to DMSO control.
Format: cell-based
Protocol: HepG2-Clone42, a Tet-inducible HBV-expressing cell line with a stably integrated 1.3 mer copy of the HBV ayw strain, was generated based on the Tet-inducible HepAD38 cell line with slight modifications. Ladner S K, et al., Antimicrobial Agents and Chemotherapy. 41(8):1715-1720 (1997). HepG2-Clone42 cells were cultured in DMEM/F-12+Glutamax™ (Life Technologies, Carlsbad, Calif., USA), supplemented with 10% fetal bovine serum (Life Technologies), G-418 (Corning, Manassas, Va., USA) at a final concentration of 0.5 mg/mL, and 5 μg/mL Doxycycline (Sigma, St. Louis, Mo., USA) and maintained in 5% CO2 at 37° C.
HepG2-Clone42 cells were seeded into black clear-bottom 96-well plates at a concentration of 6.0×10^4 cells/well. 24 hours post-seeding, the cells were treated with 200 μl/well of media containing five-fold serial dilutions of compounds in DMSO. DMSO alone was used as the no drug control. The final DMSO concentration in all wells was 0.5%.
The HBsAg ELISA kit (Alpha Diagnostic International, San Antonio, Tex., USE, Catalog #4110) was used to determine the level (semi-quantitative) of secreted HBV sAg. The HBSAg ELISA assay was performed following the manufacturer's protocol as described.
Step 1. Pipet 100 μL each of compound or DMSO treated samples into HBsAg ELISA plates. Seal plates and incubate at room temp for 60 minutes.
Step 2. Aspirate samples and wash three times with Wash Buffer. Dispense 100 μL of antibody-HRP conjugate to each well. Incubate at room temp for 30 minutes.
Step 3. Aspirate samples and wash three times with Wash Buffer. Add 100 μL of TMB Substrate to all wells and incubate 15 minutes at room temp.
Step 4. Dispense 100 μL of Stop Solution to each well. Measure absorbance of ELISA plate at 450 nm.
Dose-response curves were generated and the EC50 value was defined as the compound concentration at which HBsAg secretion was reduced 50% compared to the DMSO control.
EC50 values were determined as follows:
Determine the percent of HBsAg secretion inhibition. Calculate the percent inhibition on of HBsAg secretion inhibition using the following equation: […]
where XC is the absorbance signal from compound-treated well; MB is average absorbance signal (background signal) for column 12 (no cells+HBsAg ELISA sample buffer) and MD is average absorbance signal from DMSO-treated wells. Then calculate EC50 values by non-linear regression using a four parameter curve logistic equation.
The curve fit model employed is XLFit Dose Response One Site Model 204: y=(A+((B−A)/(1+(10^((C−x)*D))))) where A is the minimum y value, B is the maximum y value, C is the log EC50 value, and D is the slope factor. In the following table+≥100 nM; 100 nM>++≥1 nM; 1 nM>+++

SMILES	EC50
CC(C)(C)C1Cn2nc3c(OC[C@H]4CCC(=O)N4)cccc3c2-c2cc(=O)c(C(=O)O)cn21 (single isomer, unassigned) [Example 2.34-I]	> 100 nM
CC(C)(C)C1Cn2nc3c(OC(F)F)cccc3c2-c2cc(=O)c(C(=O)O)cn21 (stereo not drawn) [Example 2.5, 6-(tert-butyl)-10-(difluoromethoxy)-2-oxo-6,7-dihydro-2H-pyrido[2′,1′:3,4]pyrazino[1,2-b]indazole-3-carboxylic Acid]	1 to 100 nM
CC(C)(C)C1Cn2nc3c(OCCN4CCCC4=O)cccc3c2-c2cc(=O)c(C(=O)O)cn21 (racemic) [Example 2.20, 6-(tert-butyl)-2-oxo-10-(2-(2-oxopyrrolidin-1-yl)ethoxy)-6,7-dihydro-2H-pyrido[2′,1′:3,4]pyrazino[1,2-b]indazole-3-carboxylic Acid]	1 to 100 nM
COCC(COc1cccc2c3n(nc12)CC(C(C)(C)C)n1cc(C(=O)O)c(=O)cc1-3)OC (racemic) [Example 2.13, 6-(tert-butyl)-10-(2,3-dimethoxypropoxy)-2-oxo-6,7-dihydro-2H-pyrido[2′,1′:3,4]pyrazino[1,2-b]indazole-3-carboxylic Acid]	1 to 100 nM
CCC(C)Oc1cccc2c3n(nc12)CC(C(C)(C)C)n1cc(C(=O)O)c(=O)cc1-3 (racemic) [Example 2.7, 10-(sec-butoxy)-6-(tert-butyl)-2-oxo-6,7-dihydro-2H-pyrido[2′,1′:3,4]pyrazino[1,2-b]indazole-3-carboxylic acid]	< 1 nM
CC(C)OCCOc1cccc2c3n(nc12)CC(C(C)(C)C)n1cc(C(=O)O)c(=O)cc1-3 (racemic) [Example 2.15, 6-(tert-butyl)-10-(2-isopropoxyethoxy)-2-oxo-6,7-dihydro-2H-pyrido[2′,1′:3,4]pyrazino[1,2-b]indazole-3-carboxylic Acid]	< 1 nM
CC(C)(C)C1Cn2nc3c(OCC4(CS(C)(=O)=O)CC4)cccc3c2-c2cc(=O)c(C(=O)O)cn21 (racemic) [Example 2.24, 6-(tert-butyl)-10-((1-((methylsulfonyl)methyl)cyclopropyl)methoxy)-2-oxo-6,7-dihydro-2H-pyrido[2′,1′:3,4]pyrazino[1,2-b]indazole-3-carboxylic Acid]	> 100 nM
CC(C)COc1cccc2c3n(nc12)CC(C(C)(C)C)n1cc(C(=O)O)c(=O)cc1-3 (racemic) [Example 2.16, 6-(tert-butyl)-10-isobutoxy-2-oxo-6,7-dihydro-2H-pyrido[2′,1′:3,4]pyrazino[1,2-b]indazole-3-carboxylic Acid]	< 1 nM
CC(C)(C)C1Cn2nc3c(OCC(=O)O)cccc3c2-c2cc(=O)c(C(=O)O)cn21 (racemic) [Example 2.23, 6-(tert-butyl)-10-(carboxymethoxy)-2-oxo-6,7-dihydro-2H-pyrido[2′,1′:3,4]pyrazino[1,2-b]indazole-3-carboxylic Acid]	1 to 100 nM

Same assay, conditions: read-out: HBsAg, EC50 = concentration at which HBsAg secretion was reduced 50% compared to DMSO control

SMILES	EC50
COc1cccc2c3n(nc12)CC(C(C)(C)C)n1cc(C(=O)O)c(=O)cc1-3 (single isomer, unassigned) [Example 1.1-II, 6-(tert-butyl)-10-methoxy-2-oxo-6,7-dihydro-2H-pyrido[2′,1′:3,4]pyrazino[1,2-b]indazole-3-carboxylic acid]	> 100 nM
COc1cccc2nn3c(c12)-c1cc(=O)c(C(=O)O)cn1C(C(C)(C)C)C3 (single isomer, unassigned) [Example 1.4-I, 6-(tert-butyl)-13-methoxy-2-oxo-6,7-dihydro-2H-pyrido[2′,1′:3,4]pyrazino[1,2-b]indazole-3-carboxylic acid]	> 100 nM
COc1cccc2c3n(nc12)CC(C(C)(C)C)n1cc(C(=O)O)c(=O)cc1-3 (single isomer, unassigned) [Example 1.1-I, 6-(tert-butyl)-10-methoxy-2-oxo-6,7-dihydro-2H-pyrido[2′,1′:3,4]pyrazino[1,2-b]indazole-3-carboxylic acid]	< 1 nM
